Results: patent US7553844B2 (Jarrow Formulas, Inc., priority 2003, dated 2009)
pEC50: −log10 of the molar value.

Experiments:
primary HIV-1 isolates = assay type: cell-based; details: 1 μM CQ; data not shown
Excerpt: (§1) Laboratory-adapted HIV-1IIIB and HIV-2CBL/20 strans, the primary isolates HIV-1UG3 (Clade A, R5) and HIV-1VI 829 (Clade C, R5), both obtained from antiretroviral-naive subjects were used. These viruses are fully described in the paper by Savarino A. et al. referenced above. The HIV-1PAVIA12 isolate was also used. It was donated by Dr. Maurizia Debiaggi, University of Pavia, Italy, who also performed its genotypic analysis. It belongs to Clade B and was isolated from an individual with HAART failure. […] Viral stocks were titrated biologically by the 50% endpoint dilution method, using MT-2 cells (laboratory strains) or PHA-activated peripheral blood mononuclear cells (PBMC) (primary isolates).
(§2) In acute infection assays, the appropriate cell types were incubated at 37° C. for 2 h with the viral stock suspensions at a multiplicity of infection (MOI) of approximately 0.1, unless otherwise specified. After three washes, cells were incubated in fresh culture medium for 7 days at 37° C., and cell-free supernatants at different intervals post-infection were harvested for ELISA measurement of HIV-1 p24 (NEN Life Science Prod., Boston Mass.) or HIV-2 p27 (Coulter, Hialeah, Fla.) (26, 33).
(§3) Tests were conducted to evaluate the concentrations of each drug in the different combinations that produced 90% inhibition of HIV-1 replication. For each drug combination, the FIC was determined. […]

P. berghei = test: murine malaria model, Balb/c mice infected with P. berghei; assay type: in vivo, Plasmodium berghei; details: 50 or 150 mg/kg intragastrically
Procedure: FIG. 6. Antimalarial effects of RTV in mice infected with Plasmodium berghei.
FIG. 6A. Effects of RTV (50 mg/kg) on P. berghei growth in Balb/c mice. Results are shown as an average ±S.D. of the percentage of parasitized red blood cells at different days of follow-up.
FIG. 6B. Effects of RTV (50 mg/kg) on survival of mice infected with P. berghei. Results are shown as Kaplan Meyer curves and the P value for difference in survival is reported.
FIG. 6C. Effects of RTV (150 mg/kg) on P. berghei growth in Balb/c mice. Results are shown as an average ±S.D. of the percentage of parasitized red blood cells at different days of follow-up.
FIG. 6D. Effects of RTV (150 mg/kg) on survival of mice infected with P. berghei. Results are shown as Kaplan Meyer curves and the P value for difference in survival is reported.
Parasitemia was determined by light microscopy using Giemsa-stained thin smears and with fluorescence microscopy using the dye benzothiocarboxypurine.
To evaluate the effects of a PI in an animal model of malaria, Balb/c mice were inoculated intraperitoneally with P. berghei and then divided into three groups: 1) mock-treated with an intragastric inoculation of phosphate-buffer saline (PBS), 2) treated intragastrically with the ritonavir diluent (i.e., a 47% alcoholic solution) in the absence of ritonavir (placebo), and 3) treated intragastrically with 50 or 150 mg/kg.

[1] = system: P. falciparum (3D7, Ibginovia); test: P. falciparum LDH activity, protease inhibitors alone; assay type: cell-based, Plasmodium falciparum; details: PI alone, 48 h, clinically observable concentrations
Procedure: Results are shown as a percentage of control values.
(§4) Ibginovia is an isolate obtained at the Istituto Superiore di Sanità, Rome, Italy, positive for mutations in the codons K76 and A220 of the pfcrt gene conferring CQ resistance. The parasite's origin is Nigeria. All parasites were maintained in vitro in RPMI 1640 medium to which was added human type A red blood cells (RBC) and 10% heat-inactivated human serum. All cultures were placed in a humidified incubator at 37° C. with a gas-controlled environment of 3% O2, 6% CO2, and 91% N2 and fed according to established procedures.
(§5) This assay is based on the principle that plasmodial lactate dehydrogenase (LDH) can use 3-acetylpyridine NAD (APAD) as a coenzyme, which is converted to APADH during lactate oxidation. All samples for LDH determination were measured spectrophotometrically at 650 nm. For these measurements, 10-50 μl of the malaria sample was added to the Mastat reagent, which is an optimized formulation for parasite LDH detection. […] The formation of APADH was determined at 650 nm using a multiwavelength plate reader. Each well of a test microtiter plate was automatically measured at 30-sec. intervals, and the individual data points were stored and subsequently plotted with a software program. […] As APADH is formed, the NBT is reduced and forms a formazan product that is blue and can be detected visually and measured at 650 nm. […]

[2] = system: CQ-resistant P. falciparum field isolate (Ibginovia); test: P. falciparum LDH activity, CQ with or without PI, Ibginovia; assay type: cell-based, Plasmodium falciparum; details: PI with CQ, 48 h; PI at sub-optimally inhibiting concentration
Excerpt: In order to illustrate typical results, data are shown as a mean ±S.D. optical density (O.D.) at the end of a reaction mediated by plasmodial lactate dehydrogenase (LDH), as described in the Materials and Methods of the EXAMPLES section. The O.D. values are directly proportional to P. falciparum cell viability.
as §4, with “All cultures were placed in a humidified incubator at 37° C. with a gas-controlled environment of 3% O2, 6% CO2, and 91% N2 and fed according to established procedures.” left out
as §5, with “nm.” for “nm. For these measurements, 10-50 μl of the malaria sample was added to the Mastat reagent, which is an optimized formulation for parasite LDH detection.”

[3] = system: CQ-resistant P. falciparum strain (W2); test: P. falciparum LDH activity, CQ with or without PI, W2; assay type: cell-based, Plasmodium falciparum
Procedure: (§6) A fractional inhibitory concentration (FIC) was then calculated as drug EC90 of drug A in combination with drug 2/EC90 of drug B alone. The effect was considered to be synergistic when the sum of FICs was ≦0.5.
(§7) This assay is based on the principle that plasmodial lactate dehydrogenase (LDH) can use 3-acetylpyridine NAD (APAD) as a coenzyme, which is converted to APADH during lactate oxidation. All samples for LDH determination were measured spectrophotometrically at 650 nm. For these measurements, 10-50 μl of the malaria sample was added to the Mastat reagent, which is an optimized formulation for parasite LDH detection. The samples consisted of malaria cultures. All aliquots were added to 0.2 ml of the Malstat reagent using a 96-well microtiter plate format. The formation of APADH was determined at 650 nm using a multiwavelength plate reader. Each well of a test microtiter plate was automatically measured at 30-sec. intervals, and the individual data points were stored and subsequently plotted with a software program. The spectrophotometric assessment of LDH activity was facilitated by adding NBT (0.24 mM) and PES (0.033 mM) to Malstat reagent. As APADH is formed, the NBT is reduced and forms a formazan product that is blue and can be detected visually and measured at 650 nm. This assay is specific for parasitic LDH and is not influenced by the human enzyme. […]

[4] = system: CQ-sensitive P. falciparum strain (3D7); test: P. falciparum LDH activity, CQ with or without PI, 3D7; assay type: cell-based, Plasmodium falciparum
Procedure: as §6, §7

HIV-1 IIIB = test: acute infection assay, HIV-1 p24 ELISA, MT-4 cells; assay type: cell-based; details: Human immunodeficiency virus 1, MT4; HIV-1 IIIB-infected MT-4 cells; data not shown
Excerpt: as §1, §2
A fractional inhibitory concentration (FIC) was then calculated as drug EC90 of drug A in combination with drug 2/EC90 of drug B alone. The effect was considered to be synergistic when the sum of FICs was ≦0.5. […]

UG3 (HIV-1 Clade A) = test: infection of PBMC with primary isolate UG3, p24; assay type: cell-based; details: without CQ
Excerpt: as §1, §2, §3

Row | pEC50 (HIV-1 IIIB) | SMILES | inhibitory effect of CQ alone (primary HIV-1 isolates) | parasite multiplication in mice (P. berghei; Balb/c mice) | survival of treated mice (P. berghei; Kaplan-Mayer curves) | P. falciparum growth (LDH activity) [1] | response to CQ in CQ-resistant P. falciparum [2] | sum of FICs ([3]; CQ+PI combination, W2 strain, ≦0.5 indicates synergism) | response to CQ in CQ-resistant P. falciparum ([3]; IDV (5 μM) with CQ, 48 h) | sum of FICs ([4]; CQ+PI combination, 3D7 strain) | effects of IDV on CQ-response ([4]; IDV (5 μM) with CQ, compared with CQ-resistant strains) | p24 levels in supernatants (UG3 (HIV-1 Clade A); 100 nM IDV, 5 days after infection) | IDV concentration at which inhibitory effects were visible (UG3 (HIV-1 Clade A)) [µM]
1 | – | CCN(CC)CCCC(C)Nc1ccnc2cc(Cl)ccc12 (stereo not shown) [CQ, Chloroquine] | minimal | – | – | – | – | – | – | – | – | – | –
2 | – | CC(C)c1nc(CN(C)C(=O)N[C@H](C(=O)N[C@@H](Cc2ccccc2)C[C@H](O)[C@H](Cc2ccccc2)NC(=O)OCc2cncs2)C(C)C)cs1 [RTV, ritonavir] | – | dose-dependently retarded parasite multiplication in mice | increased survival of treated mice in a significant manner | dose-dependently inhibited P. falciparum growth | restored the response to CQ | – | – | – | – | – | –
3 | ~8.00 | CC(C)(C)NC(=O)[C@@H]1CN(Cc2cccnc2)CCN1C[C@@H](O)C[C@@H](Cc1ccccc1)C(=O)N[C@H]1c2ccccc2C[C@H]1O [IDV, indinavir] | – | – | – | dose-dependently inhibited P. falciparum growth | – | ≤ 0.5 | restored the response to CQ | > 0.5 | less dramatic | typical peak in the p24 levels in supernatants | 1
